Laboratory results as given in patent US12390441B2, “Immunomodulating o-het/aryl azalides” (Zoetis Services LLC, priority 2020, dated 2025).
Entries after “also recorded” stand apart in the source; their conditions may differ.

Key:
[1] = PK study, plasma concentration; conditions: 10 mg/kg dose
P. multocida = assay: Murine P. multocida intranasal challenge study, survival; assay type: in vivo, mice; conditions: 5×10^3 CFU/mouse; subcutaneous 18 hours after challenge; tulathromycin 16 mg/kg, M9 32 mg/kg, ceftiofur 9 mg/kg
[2] = test system: M. haemolytica (OSU-012103-BHI); assay: In vivo bovine lung infection (intratracheal) challenge model
CD163 = CD163 expression by flow cytometry, blood of treated cattle; conditions: monocytes/macrophages
upstream regulators = assay: Lung tissue RNA sequence analysis, ingenuity pathway analysis; assay type: in vivo, mice; conditions: M9 32 mg/kg (T03)
Method: In one murine P. multocida intranasal challenge study, mice were administered tulathromycin (16 mg/kg; T02), M9 (32 mg/kg; T03), or ceftiofur (9 mg/kg; T04) by subcutaneous injection 18 hours after bacterial challenge (5×10^3 CFU/mouse) for lung tissue RNA sequence analysis. […] Data was analyzed based on the number of genes being modulated in the same direction that were associated with a given upstream regulator. An activation z-score of 2 or greater is considered significant and the direction change is indicated by +(activated) or −(inhibited).

[3] = test system: Lung bacteria isolated at necropsy; assay: MIC of recovered isolates, natural bovine respiratory disease study
Method: The primary clinical endpoint for efficacy was treatment failure/success over a 14-day observation period. Clinically normal beef calves (150-200 kg) at moderate risk for BRD were dosed on arrival to the feedlot. Animals (N=114/group) received saline (T01), 5 mg/kg M9 (T02) or 10 mg/kg M9 (T03); or Zactran (T04). […] Bacterial isolates were collected at necropsy and MICs were evaluated (Table 4).

[4] = H. somni (25) lung isolates at necropsy

CCCNC[C@]1(O)[C@H](C)O[C@@H](O[C@H]2[C@H](C)[C@@H](O[C@@H]3O[C@H](C)C[C@H](NC)[C@H]3O)[C@](C)(O)C[C@@H](C)CN[C@H](C)[C@@H](O)[C@](C)(O)[C@@H](CC)OC(=O)[C@@H]2C)C[C@@]1(C)OC [Example M9, (2R,3S,4R,5R,8R,10R,11R,12S,13S,14R)-2-ethyl-3,4,10-trihydroxy-13-(((2R,4R,5S,6S)-5-hydroxy-4-methoxy-4,6-dimethyl-5-((propylamino)methyl)-tetrahydro-2H-pyran-2-yl)oxy)-11-(((2S,3R,4S,6R)-3-hydroxy-6-methyl-4-(methylamino)tetrahydro-2H-pyran-2-yl)oxy)-3,5,8,10,12,14-hexamethyl-1-oxa-6-azacyclopentadecan-15-one]
maximum plasma concentration [1]: 5 µg/mL | Survival at Day 7 (P. multocida): ~50% | mortality ([2]; No challenge, M9 10 mg/kg (T04)): 0/6 | Mortality (%) ([2]; second intratracheal challenge study, 10 mg/kg (T05)): 12.5% | CD163 expression (CD163): suppressed; also recorded: mitigates the pathologic increase | activation z-score, IFNγ (upstream regulators): −5.759 | activation z-score, IL-1β (upstream regulators): −5.947 | activation z-score, STAT1 (upstream regulators): −2.787 | activation z-score, TNF (upstream regulators): −4.669 | activation z-score, lipopolysaccharide (upstream regulators): −6.725 | activation z-score, poly rl:rC-RNA (upstream regulators): −5.289 | unique genes up or down regulated (with significance) (upstream regulators; total lung tissue): at least 226 | MIC50 [3, 4]: 32 µg/mL | MIC90 [3, 4]: 32 µg/mL | MIC Range [3, 4]: 8 to 64 µg/mL | MIC, BRD bacterial isolates collected at necropsy ([3]; some of the isolates): < 64 µg/mL
